Assay [1] concerns fibrin. The assay can be described thus: Elution of 11 kDa fragment from fibrin-SEPHAROSE with various agents (Table III). It is filed as binding, bovine. Particulars: rotated in the cold overnight. The method, then:
Since complete recovery of fibrin-binding activity was desired for use of the molecule in clinical application, various buffers were tested in an attempt to optimize recovery of the peptide while retaining maximal biological activity.

Assay [2] relates to fibrin. The assay can be described thus: Fibrin-SEPHAROSE affinity chromatography (binding and elution). Particulars: temperature change vs denaturing conditions (6M urea or 50% ethylene glycol) for elution. Also noted: species or system bovine. On the procedure: Bovine fibrinogen was cross-linked to CNBr-activated SEPHAROSE™ (5 mg/ml beads) according to the manufacturer's instructions. Coupled fibrinogen was subsequently converted to fibrin by incubation with human thrombin to a final concentration of 5 NIH units/ml and 100 K.I. (kallikrein inhibitory) units/ml of aprotinin (in 0.05M Tris-HCI buffer, pH 7.6, containing 0.1M NaCl and 0.01M EDTA) for three hours, at room temperature (Gold, et al. (1983) Biochemistry 22, 4113-4119).
1.0M NaCl in 0.05M tris buffer, pH 8.0.
The fibrin-binding activity of the proteolytically derived 25.9 kDa fragment of Fn was determined by its ability to bind to a fibrin affinity matrix. […] FBB was used to equilibrate and wash the column. Following warming of the column to 22° C., the column was washed with FBB until absorbance at 280 nm (A280) was less than 0.01, and bound protein eluted with 0.05M Tris-HCl, 0.5M NaCl, 6M urea buffer, pH 7.6.
The module (500 μg/1.0 ml) was incubated for 4 hours (while rotating) at 4° C. in the presence of 1.0 ml fibrin-SEPHAROSE™ (5 mg fibrin/ml SEPHAROSE™ beads) equilibrated in […] Tris-HCl, 0.1M NaCl buffer, pH 7.6.
The 11 KDa peptide (50 μg/0.206 ml) was radiolabeled using the IODO-BEAD method (Pierce Chemical). The peptide was added to one IODO-BEAD in the presence of 100 μCi ^125 I (17.4 Ci/mg, New England Nuclear) and incubated on ice for 10 minutes. The bead was removed and the free ^125 I removed by chromatography through a PD10 column containing SEPHADEX™ G-25 (Pharmacia). […] The radioiodinated 11 kDa fibrin-binding peptide (500 μg/1.5 ml) was combined with 1 ml of fibrin-SEPHAROSE™ (5 mg fibrin/ml beads) equilibrated with 50 mM Tris-HCl, 0.1M NaCl buffer, pH 7.6, and rotated for 4 hours, at 4° C. The mixture was poured onto a disposable column (0.6 cm×8.0) and the unbound protein washed through. The column was equilibrated to room temperature and washed with the equilibration buffer.

The test system of assay [3] is fibrinogen. The assay can be described thus: Binding of eluted 11 kDa fragment to fibrinogen-SEPHAROSE column. Particulars: 37° C.; ethylene glycol eluted material.
Assay [4] has as its system fibrin. In words: Reversibility (displacement) of 125I-11 kDa FBP binding to fibrin. Particulars: 2,000 nM unlabeled peptide (22.2 molar excess). The method, then:
Detachable microtiter wells previously coated with 15 ng of fibrin were incubated with 100 ng/0.1 ml FBB (90 nM) of ^125 I-11 kDa for 1 hour at 22° C. The unbound radiolabeled protein was removed by extensive washing with FBB containing 0.1% Tween 20. […] The iodinated 11 kDa that remained bound to the removable wells was determined by quantitating the radioactivity attached to the individual wells in a gamma counter. Results were expressed as percentage of control wells incubated with buffer alone.

Assay [5] has as its system fibrin. In words: Rebinding of eluted 11 kDa fragment to fibrin column. It is filed as binding, bovine. The method, then: Thus, although 100% of the 11 kDa peptide that was applied to the column could be eluted, only 40-50% of the protein rebound to a second fibrin column at 4° C., and only 20% bound at 37° C.
The 11 kDa peptide of fibronectin (or 25.9 kDa peptide) and genetically engineered and expressed proteins of fibronectin type I repeat modules are subjected to fibrin-SEPHAROSE™ chromatography as described above.

Assay [6] concerns thrombi. The assay can be described thus: Preliminary thrombus binding dose experiment in rats. Type of assay: in vivo. Particulars: 3.4 μCi/13.3 μg/rat (550 gr). On the procedure:
Determination of thrombus to blood and thrombus to muscle ratios: Before performing the pharmacokinetic studies, the arterial and venous vessels of the same animals are wounded until a thrombus is formed. The ascending vena cava (below the kidneys) and the descending aorta (immediately above the bifurcation) are clamped with a rubber tipped mosquito clamps for 2 hours for the artery and one hour for the vein. A thrombotic occlusion is formed of approximately 1.5 cm length. The specific binding of ^125 I-FBP (11 kDa to start) to the preformed thrombus, is determined compared to blood and muscle (wt/wt), over time, following injection. The amount of ^125 I-FBP that binds to an injured vessel versus an uninjured vessel is also quantitated. The time for optimal binding is crucial for feasibility of imaging (less than two hours would be considered adequate). The testing of binding to thrombi prepared 24 hours (or longer) ahead (preformed thrombi) compared to newly formed thrombi is also performed. This will determine the efficacy of ^125 I-FBP to older and newly forming thrombi.
Dosimetry Studies: Determination of the optimal dose (μCi/μg/kg) required for binding (Dose response) to thrombi: Three different doses were injected following injury, and thrombi removed at the various indicated above.

For the substance “11 kDa FBP: 11 kDa C-terminal proteolytic (subtilisin) fibrin-binding fragment of human plasma fibronectin, residues 2123-2232 of SEQ ID NO:1”, the “% ELUTED from fibrin-SEPHAROSE” value in assay [1] (agent 1.0M Arginine, listed as 11 kDa FIBRIN-BINDING FRAGMENT) is 26%; in assay [1] (agent 1.0M Arginine, listed as 11 kDa peptide), 25%; in assay [1] (agent 1.0M KBr), 55-65%; in assay [1] (agent 2.0M Urea) it was 32%; in assay [1] (agent 4.0M Urea), 50-60%; in assay [1] (agent 6.0M Urea), 100%. Further, the “% ELUTED from fibrin-SEPHAROSE” value in assay [1] (agent 50% ethylene glycol, pH 11.5) was determined as 77%. Further, the “relative affinity for fibrin (from elution conditions)” value in assay [2] was “markedly higher”. Also, in assay [3], the “% of applied material bound to fibrinogen-SEPHAROSE column” value is 4-5%. In assay [4], the “% of bound iodinated 11 kDa reversibly displaced” value is 42%. The “% Rebound to fibrin” value was 7-10% in assay [5] (4° C., eluted with 1.0M KBr); 60% in assay [5] (4° C., eluted with 2.0M Urea); 45-52% in assay [5] (4° C., eluted with 4.0M Urea); 40-50% in assay [5] (4° C., eluted with 6.0M Urea); 40-50% in assay [5] (4° C., eluted with 6.0M Urea (step dialysis)); 80% in assay [5] (4° C., eluted with ethylene glycol, listed as 11 kDa FRAGMENT). The “% Rebound to fibrin” value in assay [5] (4° C., eluted with ethylene glycol, listed as 11 kDa peptide) was found to be 60%; in assay [5] (37° C., eluted with 6.0M urea) it was 20%; in assay [5] (37° C., eluted with ethylene glycol) it was 49.5%. For the same substance, the “binding to thrombi compared to blood” value in assay [6] is “sufficient binding to thrombi compared to blood”.

These data come from US5792742A, “Fibrin-binding peptide fragments of fibronectin” (New York University, priority 1994, dated 1998).
